In patent publication US9321773B2, “Compounds” (Respivert Ltd, priority 2009, dated 2016):

Legend:
[1] = test system: H2O2 induced pAkt in D-U937 cells; test: PI3Kδ Cell Based Assay (H2O2 induced pAkt); conditions: Homo sapiens, dU937; activity range; D-U937 cells; read-out: Cellular Activity IC50 values (H2O2 induced pAkt D-U937 Cells)
Method: As a means of assessing PI3K 6 activation in response to stimuli, the phosphorylation status of the protein, Akt, a downstream product of PI3K6, signaling was determined. Human monocytic cells (U937 cells), were differentiated to macrophage-type cells by incubation with phorbol myristate acetate (PMA; 100 ng/mL) for 48 to 72 hr. […] The cells were washed with buffer (PBS containing 0.1% Triton X-100) and were incubated with blocking solution (1% BSA in PBS) for 1 hr and were then re-washed with buffer and incubated overnight with either anti-pAkt antibody or anti-pan-Akt antibody (both from Cell Signaling Technology). […] This reaction was stopped by addition of 100 μL of 1N H2SO4 solution. […] The ratio of pAkt signal to total Akt signal was used to quantitate the extent of PI3K δ activation. […] The IC50 values were calculated from the concentration-response curves generated by the serial dilutions of the test compounds (Table 3 and Table 4).

[2] = test system: PMA-differentiated U937 cells; test: MTT Assay (cell viability); format: cell-based, Human; conditions: percentage loss of cell viability; for Cell Viability MTT Assay in D-U937 cells at 4 hr: 4 hr in 5% FCS; for Cell Viability MTT Assay in D-U937 cells at 24 hr: 24 hr in 10% FCS
Method: PMA-differentiated U937 cells were pre-incubated with compound for 4 hr in 5% FCS or 10% FCS for 24 hr. The supernatant was replaced with 200 μL of new media and 10 μL of MTT stock solution (5 mg/ml) added to each well. After 1 hr incubation, the media were removed, 200 μL of DMSO added to each well and the plates were shaken lightly for 1 hr prior to reading the absorbance at 550 nm. The percentage loss of cell viability was calculated for each well relative to vehicle (0.5% DMSO)-treatment (Table 3).

recombinant PI3 kinase δ = recombinant PI3 kinase δ (Homo sapiens (Human), UniProt O00329); test: Enzyme Inhibition Assay (HTRF PI3K enzyme assay, TR-FRET); format: biochemical; conditions: activity range; read-out: PI3 Kinase Inhibition IC50 values at stated Isozyme δ
Sequence of recombinant PI3 kinase δ (O00329 whole entry): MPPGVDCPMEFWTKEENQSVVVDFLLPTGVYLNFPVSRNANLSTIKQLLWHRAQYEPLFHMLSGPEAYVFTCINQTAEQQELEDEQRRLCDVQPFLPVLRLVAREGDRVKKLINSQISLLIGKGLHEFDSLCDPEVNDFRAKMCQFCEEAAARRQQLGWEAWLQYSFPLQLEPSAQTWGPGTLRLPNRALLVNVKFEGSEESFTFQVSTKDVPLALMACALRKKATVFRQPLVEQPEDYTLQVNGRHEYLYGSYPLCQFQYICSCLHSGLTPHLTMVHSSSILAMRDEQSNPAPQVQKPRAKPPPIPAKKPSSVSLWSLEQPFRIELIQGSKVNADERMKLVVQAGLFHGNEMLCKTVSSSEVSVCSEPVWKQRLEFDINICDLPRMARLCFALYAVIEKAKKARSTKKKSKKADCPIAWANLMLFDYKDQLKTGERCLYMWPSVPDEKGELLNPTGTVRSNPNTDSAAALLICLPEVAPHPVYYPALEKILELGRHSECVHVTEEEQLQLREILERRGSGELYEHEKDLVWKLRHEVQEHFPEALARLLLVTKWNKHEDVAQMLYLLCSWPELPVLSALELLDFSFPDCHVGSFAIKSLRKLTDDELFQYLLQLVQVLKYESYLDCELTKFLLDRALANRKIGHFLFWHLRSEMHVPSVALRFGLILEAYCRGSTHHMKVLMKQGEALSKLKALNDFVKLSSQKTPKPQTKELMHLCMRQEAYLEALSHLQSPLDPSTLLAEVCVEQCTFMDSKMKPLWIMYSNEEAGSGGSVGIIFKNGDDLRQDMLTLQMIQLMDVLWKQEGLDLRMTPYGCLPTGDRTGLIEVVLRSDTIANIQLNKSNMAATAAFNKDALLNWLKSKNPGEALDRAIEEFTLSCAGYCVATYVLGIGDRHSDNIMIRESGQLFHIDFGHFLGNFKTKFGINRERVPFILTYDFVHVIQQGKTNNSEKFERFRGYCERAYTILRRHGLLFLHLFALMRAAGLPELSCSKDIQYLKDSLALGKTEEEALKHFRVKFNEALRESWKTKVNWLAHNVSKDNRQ
Sequence of recombinant PI3 kinase δ (P27986 whole entry partner): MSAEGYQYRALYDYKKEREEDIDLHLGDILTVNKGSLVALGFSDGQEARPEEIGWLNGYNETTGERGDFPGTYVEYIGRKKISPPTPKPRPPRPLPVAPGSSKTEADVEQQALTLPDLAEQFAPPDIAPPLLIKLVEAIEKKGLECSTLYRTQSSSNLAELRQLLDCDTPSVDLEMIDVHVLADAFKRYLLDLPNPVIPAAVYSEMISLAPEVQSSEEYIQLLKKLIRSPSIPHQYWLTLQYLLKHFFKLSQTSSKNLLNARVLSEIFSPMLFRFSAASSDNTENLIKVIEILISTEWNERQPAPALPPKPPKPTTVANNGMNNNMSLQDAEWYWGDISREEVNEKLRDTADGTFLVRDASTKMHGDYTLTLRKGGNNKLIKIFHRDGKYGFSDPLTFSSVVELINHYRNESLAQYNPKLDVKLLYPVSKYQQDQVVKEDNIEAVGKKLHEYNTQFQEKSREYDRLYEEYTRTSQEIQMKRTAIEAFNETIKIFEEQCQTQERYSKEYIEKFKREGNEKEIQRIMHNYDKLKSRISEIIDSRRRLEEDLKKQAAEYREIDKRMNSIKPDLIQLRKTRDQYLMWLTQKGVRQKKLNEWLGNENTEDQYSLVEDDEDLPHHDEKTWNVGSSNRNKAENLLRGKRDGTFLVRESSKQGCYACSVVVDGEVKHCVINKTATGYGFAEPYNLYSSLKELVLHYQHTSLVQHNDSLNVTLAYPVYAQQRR
Text: PI3 kinases catalyse the phosphorylation of phosphatidylinositol 4,5-biphosphate (PIP2) to phosphatidylinositol 3,4,5-triphosphate (PIP3) in the presence of ATP and Mg^2+ ions. The PIP3 product can be detected by displacement of biotin-PIP3 from energy transfer complexes consisting of europium labelled anti-GST monoclonal antibody, a GST-tagged Pleckstrin homology (PH) domain, biotinylated PIP3 and streptavidin-allophycocyanin (APC) by the time-resolved fluorescence resonance energy transfer (TR-FRET) (HTRF® PI3K enzyme assay, Millipore). […] The PIP3 product formed by PI3K activity displaces biotin-PIP3 from the complex and results in a loss of energy transfer (decreasing signal).
The compound to be tested was added, at the desired final concentrations, to a mixture of PIP2 substrate and recombinant PI3 kinase α, δ or γ enzymes (Millipore), and the mixture incubated for 2 hr at RT. […] A stopping solution containing biotinylated PIP3 and the detection mix containing the GST tagged GRP1 pleckstrin homology (PH) domain and fluorophores were then added and the mixture was incubated at RT for 15-18 hr, prior to detection in a fluorescence microplate reader (Varioskan® Flash, ThermoFisher Scientific).

Row | Compound | IC50 [1] | Cell Viability MTT Assay in D-U937 cells at 4 hr [2] | Cell Viability MTT Assay in D-U937 cells at 24 hr [2] | IC50 (recombinant PI3 kinase δ)
1 | Cc1cnc(Cn2c(Cn3nc(-c4cccc(O)c4)c4c(N)ncnc43)nc3cccc(C#CCCCC(=O)N4CCOCC4)c3c2=O)cn1 [Example 57] | < 10 nM | − (− <30%) | − (− <30%) | –
2 | CC(=O)NCC(=O)NCC#Cc1cccc2nc(Cn3nc(-c4cccc(O)c4)c4c(N)ncnc43)n(Cc3ccccc3Cl)c(=O)c12 [Example 61, 2-Acetamido-N-(3-(2-((4-amino-3-(3-hydroxyphenyl)-1H-pyrazolo[3,4-d]pyrimidin-1-yl)methyl)-3-(2-chlorobenzyl)-4-oxo-3,4-dihydroquinazolin-5-yl)prop-2-yn-1-yl)acetamide] | < 10 nM | − (− <30%) | − (− <30%) | –
3 | Nc1ncnc2c1c(-c1ccc(O)cc1)nn2Cc1nc2cccc(C#CCCCC(=O)NC3CCCC3)c2c(=O)n1Cc1ccccc1Cl [Example 74, 6-(2-((4-Amino-3-(4-hydroxyphenyl)-1H-pyrazolo[3,4-d]pyrimidin-1-yl)methyl)-3-(2-chlorobenzyl)-4-oxo-3,4-dihydroquinazolin-5-yl)-N-cyclopentylhex-5-ynamide] | – | − (− <30%) | − (− <30%) | < 50 nM
4 | Nc1ncnc2c1c(-c1cccc(O)c1)nn2Cc1nc2cccc(C#CCCCC(=O)Nc3ccncc3)c2c(=O)n1Cc1ccccc1Cl [Example 80, 6-(2-((4-Amino-3-(3-hydroxyphenyl)-1H-pyrazolo[3,4-d]pyrimidin-1-yl)methyl)-3-(2-chlorobenzyl)-4-oxo-3,4-dihydroquinazolin-5-yl)-N-(pyridin-4-yl)hex-5-ynamide] | 10 to 1000 nM | − (− <30%) | − (− <30%) | < 50 nM
5 | CN1CCN(CCNC(=O)CCCC#Cc2cccc3nc(Cn4nc(-c5ccc(O)cc5)c5c(N)ncnc54)n(Cc4ccccc4Cl)c(=O)c23)CC1 [Example 84, 6-(2-((4-Amino-3-(4-hydroxyphenyl)-1H-pyrazolo[3,4-d]pyrimidin-1-yl)methyl)-3-(2-chlorobenzyl)-4-oxo-3,4-dihydroquinazolin-5-yl)-N-(2-(4-methylpiperazin-1-yl)ethyl)hex-5-ynamide] | < 10 nM | − (− <30%) | − (− <30%) | < 50 nM
6 | CN1CCN(CCN(C)C(=O)CCCC#Cc2cccc3nc(Cn4nc(-c5ccc(O)cc5)c5c(N)ncnc54)n(Cc4ccccc4Cl)c(=O)c23)CC1 [Example 85, 6-(2-((4-Amino-3-(4-hydroxyphenyl)-1H-pyrazolo[3,4-d]pyrimidin-1-yl)methyl)-3-(2-chlorobenzyl)-4-oxo-3,4-dihydroquinazolin-5-yl)-N-methyl-N-(2-(4-methylpiperazin-1-yl)ethyl)hex-5-ynamide] | < 10 nM | − (− <30%) | − (− <30%) | < 50 nM
7 | CC(C)NC(=O)CCCC#Cc1cccc2nc(Cn3nc(-c4cccc(O)c4)c4c(N)ncnc43)n(Cc3ccccc3Cl)c(=O)c12 [Example 87, 6-(2-((4-Amino-3-(3-hydroxyphenyl)-1H-pyrazolo[3,4-d]pyrimidin-1-yl)methyl)-3-(2-chlorobenzyl)-4-oxo-3,4-dihydroquinazolin-5-yl)-N-isopropylhex-5-ynamide] | < 10 nM | − (− <30%) | − (− <30%) | < 50 nM
